Experimental data as given in ChEMBL document CHEMBL1201862, “PubChem BioAssay data set” (2004).
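Briefly, cells in 96-well plates were exposed to five compound concentrations for 48 h, and endpoints were estimated by linear interpolation. GI50: concentration for 50% inhibition of growth.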 Activity calls are given as the source filed them. Rule as the data show it: active = GI50 up to about 1.1 µM and inactive = higher.

Tests used:
Test in all cases: NCI tumour cell line growth inhibition, 48 h
ACHN = tested on: ACHN
COLO 205 = tested on: COLO 205
EKVX = tested on: EKVX
HCC 2998 = tested on: HCC 2998
HCT-116 = tested on: HCT-116
HT-29 = tested on: HT-29
K562 = tested on: K562
KM12 = tested on: KM12
MOLT-4 = tested on: MOLT-4
NCI-H23 = tested on: NCI-H23
OVCAR-5 = tested on: OVCAR-5
SF-539 = tested on: SF-539
SK-MEL-28 = tested on: SK-MEL-28
SK-MEL-2 = tested on: SK-MEL-2
SK-MEL-5 = tested on: SK-MEL-5
SNB-19 = tested on: SNB-19
SNB-75 = tested on: SNB-75
SW-620 = tested on: SW-620
UACC-257 = tested on: UACC-257
HL-60 = tested on: HL-60

Measured: GI50

CC/C=C(\C(=C/CC)[N+](=O)[O-])[N+](=O)[O-]
inactive: ACHN 18.7 µM | COLO 205 17.8 µM | EKVX 15.6 µM | HCC 2998 19.4 µM | HCT-116 19.9 µM | HT-29 16.4 µM | K562 30.3 µM | KM12 > 10 µM | MOLT-4 42.7 µM | NCI-H23 18.9 µM | OVCAR-5 13.4 µM | SF-539 21.3 µM | SK-MEL-28 19.9 µM | SK-MEL-2 47.5 µM | SK-MEL-5 31 µM | SNB-19 > 100 µM | SNB-75 > 100 µM | SW-620 17.1 µM | UACC-257 17.1 µM

O=c1cnn(C/C=C\CO)c(=O)[nH]1
inactive: ACHN > 100 µM | COLO 205 > 100 µM | EKVX > 100 µM | HCC 2998 > 100 µM | HL-60 > 100 µM | K562 > 100 µM | KM12 > 100 µM | NCI-H23 > 100 µM | OVCAR-5 > 100 µM | SF-539 > 100 µM | SK-MEL-28 > 100 µM | SK-MEL-2 > 100 µM | SK-MEL-5 > 100 µM | SNB-19 > 100 µM | SNB-75 > 100 µM | SW-620 > 100 µM | UACC-257 > 100 µM

NCCCCNCCCNC(=O)c1nc(-c2nc(CCN)sc2Cl)sc1Cl
inactive: ACHN > 100 µM | COLO 205 > 100 µM | EKVX > 100 µM | HCC 2998 > 100 µM | HCT-116 9.48 µM | HL-60 > 100 µM | HT-29 > 100 µM | K562 9.35 µM | KM12 27.5 µM | MOLT-4 > 100 µM | NCI-H23 37.9 µM | OVCAR-5 > 100 µM | SF-539 48.8 µM | SK-MEL-28 46.5 µM | SK-MEL-5 > 100 µM | SNB-19 > 100 µM | SNB-75 72.9 µM | SW-620 16.7 µM | UACC-257 > 100 µM

CSCCC(NC(=O)OCc1ccccc1)NC(=O)OCc1ccccc1
inactive: ACHN > 100 µM | COLO 205 > 100 µM | HCC 2998 > 100 µM | HCT-116 > 100 µM | HL-60 > 10 µM | HT-29 > 100 µM | K562 > 100 µM | MOLT-4 > 100 µM | NCI-H23 > 100 µM | OVCAR-5 > 100 µM | SK-MEL-28 > 100 µM | SK-MEL-2 > 100 µM | SK-MEL-5 > 100 µM | SNB-19 > 100 µM | SNB-75 > 100 µM | SW-620 > 100 µM | UACC-257 > 100 µM

CCCc1[nH]c(SCCCCCCCCSc2nc(-c3ccc(F)cc3)c(CCC)[nH]2)nc1-c1ccc(F)cc1
inactive: ACHN 54.1 µM | COLO 205 77.4 µM | EKVX 4.89 µM | HCC 2998 > 100 µM | HCT-116 5.42 µM | HL-60 6.5 µM | HT-29 62.7 µM | K562 3.83 µM | KM12 35.2 µM | MOLT-4 4.65 µM | NCI-H23 4.49 µM | OVCAR-5 33 µM | SF-539 6.21 µM | SK-MEL-28 26.7 µM | SK-MEL-2 24.2 µM | SK-MEL-5 4.68 µM | SNB-19 21.3 µM | SNB-75 2.11 µM | SW-620 > 100 µM | UACC-257 12.2 µM

COc1cc(C=O)cc(/C=N/c2ccc(S(N)(=O)=O)cc2)c1O
inactive: ACHN 3.82 µM | COLO 205 16.6 µM | EKVX 56.2 µM | HCC 2998 19.3 µM | HCT-116 18.2 µM | HL-60 25.4 µM | HT-29 13.7 µM | K562 47 µM | KM12 27.7 µM | MOLT-4 18 µM | NCI-H23 > 100 µM | OVCAR-5 26.7 µM | SF-539 2.93 µM | SK-MEL-28 4.36 µM | SK-MEL-2 4.47 µM | SK-MEL-5 4.91 µM | SNB-19 11.3 µM | SNB-75 23.9 µM | SW-620 24.4 µM | UACC-257 6.92 µM

CCCCCCOP(=O)(OCCCCCC)C(NC(=O)OCC)(C(F)(F)F)C(F)(F)F
inactive: ACHN 28.8 µM | COLO 205 16.6 µM | EKVX 64.6 µM | HCC 2998 > 10 µM | HCT-116 27.4 µM | HL-60 > 100 µM | HT-29 51.4 µM | K562 39.4 µM | KM12 39.1 µM | MOLT-4 > 100 µM | OVCAR-5 43.8 µM | SF-539 36.3 µM | SK-MEL-28 41.9 µM | SK-MEL-2 22.9 µM | SK-MEL-5 20 µM | SNB-19 39.4 µM | SNB-75 64.3 µM | SW-620 33.3 µM
